Where a name gives a salt, the structure may show the parent alone.
target: T1, mouse glycolate oxidase (mGO) (Mus musculus, UniProt Q9WU19); experiment: In vitro inhibition of mouse glycolate oxidase (mGO), HRP-coupled Trinder reaction; format: biochemical; conditions: compound tested at 100 μM; 40 mM glycolic acid as substrate; activity calculated at 1 minute
T1 construct: His6 (N); made in house; host or cells: E. coli BL21 (DE3)
T1 sequence (Q9WU19 1-370): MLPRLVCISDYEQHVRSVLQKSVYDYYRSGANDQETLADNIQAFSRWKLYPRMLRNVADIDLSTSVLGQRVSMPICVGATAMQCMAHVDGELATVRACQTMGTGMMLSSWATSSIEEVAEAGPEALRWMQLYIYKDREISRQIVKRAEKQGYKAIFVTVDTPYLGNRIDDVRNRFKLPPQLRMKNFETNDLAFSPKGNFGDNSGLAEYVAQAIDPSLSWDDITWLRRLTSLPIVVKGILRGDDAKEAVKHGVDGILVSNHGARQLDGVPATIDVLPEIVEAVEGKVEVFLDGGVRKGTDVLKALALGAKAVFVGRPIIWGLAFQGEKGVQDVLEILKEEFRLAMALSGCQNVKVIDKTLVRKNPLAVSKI
Procedure: Protein expression. BL21 (DE3) E. coli transformed with recombinant pET-15b expression vector containing mouse Hao1 cDNA with an N-terminal His6 tag was grown in LB medium in the presence of 0.1 mg/mL ampicillin. For purification of recombinant mGO expressed in BL21 E. coli, bacteria pellets were thawed and re-suspended in 2 mL lysis buffer (50 mM NaH2PO4, 300 mM NaCl, 10 mM imidazole, 50 μM flavin mononucleotide (FMN), pH 7.5), and then treated for 30 minutes with 1 mM phenylmethylsulfonyl fluoride (PMSF) for protease inhibition, 0.1% Triton X-100 and 0.2 mg/mL lysozyme to break cellular membranes. After sonication, cells were centrifuged and the supernatant containing the total cellular extract (pre-column fraction) was loaded into a Ni-NTA agarose column, and incubated for 30 minutes at 4° C. to allow binding. The column was washed with two bed volumes of lysis buffer with 20 mM imidazole to eliminate unbound proteins (wash fraction). mGO was eluted using the same buffer containing 300 mM imidazole. Fractions containing purified GO were dialyzed against 300 mL of dialysis buffer (50 mM NaH2PO4, 300 mM NaCl, pH 7.5) at 4° C. with agitation overnight, and then kept at 4° C. in darkness. Protein was quantified by the bicinchoninic acid (BCA) assay.
Inhibition assays. Enzymatic activity of mGO was determined in the presence of glycolate as substrate (40 mM glycolic acid) and phosphate buffer (50 mM KPO4, 0.1 mM EDTA, pH 7). The production of glyoxylate was indirectly measured by the quantification of hydrogen peroxide formed during the first oxidation reaction. This hydrogen peroxide reacted with 4.9 mM 4-aminoantipyrine and 0.1 mM sulphonated […] in a coupled horseradish peroxidase (HRP) reaction that yields a quinoneimine dye (FIG. 1) measured at 515 nm (Trinder reaction). Enzymatic activity was calculated at 1 minute after initiation of the Trinder reaction.

Question: `Cc1onc(C(=O)O)c1Cc1ccc(-c2ccc(C#N)cc2)cc1` [Compound 1, 4-((4′-Cyano-[1, 1′-biphenyl]-4-yl)methyl)-5-methylisoxazole-3-carboxylic Acid] was tested. Which inhibition at 100 µM did it give?
Answer: The inhibition at 100 µM was 30 to 60%.

Question: For `Cc1onc(C(=O)O)c1Cc1ccc(Br)cc1` [Compound 2, 4-(4-Bromobenzyl)-5-methylisoxazole-3-carboxylic Acid], which inhibition at 100 µM is on record?
Answer: Its inhibition at 100 µM is < 30%.

Question: How did the inhibition at 100 µM turn out when `Cc1onc(C(=O)O)c1Cc1ccc(Oc2ccccc2)cc1` [Compound 6, 5-Methyl-4-(4-phenoxybenzyl) isoxazole-3-carboxylic Acid] was run?
Answer: The inhibition at 100 µM was 30 to 60%.

Question: `Cc1[nH]nc(C(=O)O)c1Cc1ccc(-c2ccc(C#N)cc2)cc1` [Compound 7, 4-((4′-Cyano-[1,1′-biphenyl]-4-yl)methyl)-5-methyl-H-pyrazole-3-carboxylic Acid] was tested. Which inhibition at 100 µM did it give?
Answer: The inhibition at 100 µM was 30 to 60%.

Question: For `Cc1[nH]nc(C(=O)O)c1Cc1ccc(Br)cc1` [Compound 8, 4-(4-Bromobenzyl)-5-methyl-1H-pyrazole-3-carboxylic Acid], which inhibition at 100 µM is on record?
Answer: The inhibition at 100 µM was < 30%.

Question: `Cc1[nH]nc(C(=O)O)c1Cc1ccc(Oc2ccccc2)cc1` [Compound 10, 5-Methyl-4-(4-phenoxybenzyl)-1H-pyrazole-3-carboxylic Acid] was tested. Which inhibition at 100 µM did it give?
Answer: Its inhibition at 100 µM is 30 to 60%.

Question: `Cc1[nH]nc(C(=O)O)c1Cc1ccc(F)cc1` [Compound 12, 5-Methyl-4-(4-fluorobenzyl) 1H-pyrazole-3-carboxylic Acid] was tested. Which inhibition at 100 µM did it give?
Answer: The inhibition at 100 µM was < 30%.

Question: With `Cc1snc(C(=O)O)c1Cc1ccc(F)cc1` [Compound 13, 4-(4-Fluorobenzyl)-5-methylisothiazole-3-carboxylic Acid] as the compound, how does the inhibition at 100 µM read?
Answer: Its inhibition at 100 µM is < 30%.

Question: Which inhibition at 100 µM does the source give for `N#Cc1ccc(-c2ccc(Cc3snnc3C(=O)O)cc2)cc1` [Compound 14, 5-((4′-Cyano-[1,1′-biphenyl]-4-yl)methyl)-1,2,3-thiadiazole-4-carboxylic Acid] here?
Answer: Its inhibition at 100 µM is 30 to 60%.

Question: With `O=C(O)c1nnsc1Cc1ccc(Br)cc1` [Compound 15, 5-(4-Bromobenzyl)-1,2,3-thiadiazole-4-carboxylic Acid] as the compound, how does the inhibition at 100 µM read?
Answer: The inhibition at 100 µM was > 60%.

Question: How did the inhibition at 100 µM turn out when `O=C(O)c1nnsc1Cc1ccc(F)cc1` [Compound 16, 5-(4-Fluorobenzyl)-1,2,3-thiadiazole-4-carboxylic Acid] was run?
Answer: The inhibition at 100 µM was < 30%.

Question: With `O=C(O)c1nnsc1Cc1ccc(Oc2ccccc2)cc1` [Compound 18, 5-(4-Phenoxybenzyl)-1,2,3-thiadiazole-4-carboxylic Acid] as the compound, how does the inhibition at 100 µM read?
Answer: The inhibition at 100 µM was 30 to 60%.

Question: With `O=C(O)c1nnccc1Cc1ccc(F)cc1` [Compound 19, 4-(4-Fluorobenzyl) pyridazine-3-carboxylic Acid] as the compound, how does the inhibition at 100 µM read?
Answer: The inhibition at 100 µM was 30 to 60%.

Question: For `O=C(O)c1nnsc1Nc1ccc(-n2cccn2)cc1` [Compound 20, 5-((4-(1H-Pyrazol-1-yl)phenyl)amino)-1,2,3-thiadiazole-4-carboxylic Acid], which inhibition at 100 µM is on record?
Answer: Its inhibition at 100 µM is > 60%.

Question: Which inhibition at 100 µM does the source give for `O=C(O)c1nnsc1Nc1ccc(F)cc1` [Compound 22, 5-((4-Fluorophenyl)amino)-1,2,3-thiadiazole-4-carboxylic Acid] here?
Answer: The inhibition at 100 µM was > 60%.

Question: With `O=C(O)c1nnsc1Nc1cccc(Br)c1` [Compound 23, 5-((3-Bromophenyl)amino)-1,2,3-thiadiazole-4-carboxylic Acid] as the compound, how does the inhibition at 100 µM read?
Answer: The inhibition at 100 µM was > 60%.

Question: With `O=C(O)c1nnsc1Nc1ccc(Br)cc1` [Compound 24, 5-((4-Bromophenyl)amino)-1,2,3-thiadiazole-4-carboxylic Acid] as the compound, how does the inhibition at 100 µM read?
Answer: The inhibition at 100 µM was > 60%.

Question: For `Cc1onc(C(=O)O)c1NCc1ccc(F)cc1` [Compound 29, 4-((4-Fluorobenzyl)amino)-5-methylisoxazole-3-carboxylic Acid], which inhibition at 100 µM is on record?
Answer: Its inhibition at 100 µM is 30 to 60%.

Question: How did the inhibition at 100 µM turn out when `Cc1onc(C(=O)O)c1Nc1ccc(C#N)cc1` [Compound 30, 4-((4-Cyanophenyl)amino)-5-methylisoxazole-3-carboxylic Acid] was run?
Answer: Its inhibition at 100 µM is < 30%.

Question: Which inhibition at 100 µM does the source give for `Cc1onc(C(=O)O)c1NCc1ccc(Oc2ccc(C#N)cc2)cc1` [Compound 31, 4-((4-(4-Cyanophenoxy)benzyl)amino)-5-methylisoxazole-3-carboxylic Acid] here?
Answer: The inhibition at 100 µM was 30 to 60%.

Question: Which inhibition at 100 µM does the source give for `Cc1onc(C(=O)O)c1N(Cc1ccc(Oc2ccc(C#N)cc2)cc1)Cc1ccc(Oc2ccc(C#N)cc2)cc1` [Compound 32, 4-(bis(4-(4-Cyanophenoxy)benzyl)amino)-5-methylisoxazole-3-carboxylic Acid] here?
Answer: The inhibition at 100 µM was > 60%.

Question: `Cc1snc(C(=O)O)c1Nc1ccc(-c2ccc(C#N)cc2)cc1` [Compound 33, 4-((4′-Cyano-[1,1′-biphenyl]-4-yl)amino)-5-methylisothiazole-3-carboxylic Acid] was tested. Which inhibition at 100 µM did it give?
Answer: The inhibition at 100 µM was > 60%.

Question: Which inhibition at 100 µM does the source give for `Cc1snc(C(=O)O)c1Nc1ccc(Br)cc1` [Compound 34, 4-((4-Bromophenyl)amino)-5-methylisothiazole-3-carboxylic Acid] here?
Answer: Its inhibition at 100 µM is 30 to 60%.

Question: Which inhibition at 100 µM does the source give for `Cc1snc(C(=O)O)c1Nc1cccc(Br)c1` [Compound 35, 4-((3-Bromophenyl)amino)-5-methylisothiazole-3-carboxylic Acid] here?
Answer: Its inhibition at 100 µM is 30 to 60%.

Question: For `Cc1snc(C(=O)O)c1Nc1cccc(-c2ccc(C#N)cc2)c1` [Compound 36, 4-((4′-Cyano-[1,1′-biphenyl]-3-yl)amino)-5-methylisothiazole-3-carboxylic Acid], which inhibition at 100 µM is on record?
Answer: The inhibition at 100 µM was 30 to 60%.

Question: How did the inhibition at 100 µM turn out when `Cc1snc(C(=O)O)c1NCc1ccc(F)cc1` [Compound 37, 4-((4-Fluorobenzyl)amino)-5-methylisothiazole-3-carboxylic Acid] was run?
Answer: The inhibition at 100 µM was 30 to 60%.

Question: Which inhibition at 100 µM does the source give for `Cc1[nH]nc(C(=O)O)c1Nc1ccc(-c2ccc(C#N)cc2)cc1` [Compound 39, 4-((4′-Cyano-[1,1′-biphenyl]-4-yl)amino)-5-methyl-H-pyrazole-3-carboxylic Acid] here?
Answer: Its inhibition at 100 µM is 30 to 60%.

Question: For `Cc1[nH]nc(C(=O)O)c1Nc1ccc(Br)cc1` [Compound 40, 4-((4-Bromophenyl)amino)-5-methyl-1H-pyrazole-3-carboxylic Acid], which inhibition at 100 µM is on record?
Answer: Its inhibition at 100 µM is < 30%.

Question: Which inhibition at 100 µM does the source give for `Cc1[nH]nc(C(=O)O)c1Nc1cccc(Br)c1` [Compound 41, 4-((3-Bromophenyl)amino)-5-methyl-1H-pyrazole-3-carboxylic Acid] here?
Answer: Its inhibition at 100 µM is 30 to 60%.

Question: With `Cc1[nH]nc(C(=O)O)c1Nc1cccc(-c2ccc(C#N)cc2)c1` [Compound 42, 4-((4′-Cyano-[1,1′-biphenyl]-3-yl)amino)-5-methyl-1H-pyrazole-3-carboxylic Acid] as the compound, how does the inhibition at 100 µM read?
Answer: The inhibition at 100 µM was 30 to 60%.

Question: `Cc1n[nH]c(C(=O)O)c1NCc1ccc(F)cc1` [Compound 43, 4-((4-Fluorobenzyl)amino)-3-methyl-1H-pyrazole-5-carboxylic Acid] was tested. Which inhibition at 100 µM did it give?
Answer: The inhibition at 100 µM was 30 to 60%.

Question: How did the inhibition at 100 µM turn out when `Cc1n[nH]c(C(=O)O)c1N(Cc1ccc(F)cc1)Cc1ccc(F)cc1` [Compound 44, 4-(bis(4-Fluorobenzyl)amino)-3-methyl-1H-pyrazole-5-carboxylic Acid] was run?
Answer: The inhibition at 100 µM was 30 to 60%.

Question: Which inhibition at 100 µM does the source give for `Cc1[nH]nc(C(=O)O)c1Nc1ccc(C#N)cc1` [Compound 45, 4-((4-Cyanophenyl)amino)-5-methyl-1H-pyrazole-3-carboxylic Acid] here?
Answer: The inhibition at 100 µM was 30 to 60%.

Question: `Cc1onc(C(=O)O)c1Sc1ccc(F)cc1` [Compound 46, 4-((4-Fluorophenyl)thio)-5-methylisoxazole-3-carboxylic Acid] was tested. Which inhibition at 100 µM did it give?
Answer: Its inhibition at 100 µM is 30 to 60%.

Question: With `N#Cc1ccc(-c2cccc(Nc3ccnnc3C(=O)O)c2)cc1` [Compound 48, sodium salt, 4-((4′-Cyano-[1,1′-biphenyl]-3-yl)amino)pyridazine-3-carboxylic Acid] as the compound, how does the inhibition at 100 µM read?
Answer: Its inhibition at 100 µM is 30 to 60%.

Question: With `COc1ccc(CNc2ccnnc2C(=O)O)c(OC)c1` [Compound 49, 4-((2,4-Dimethoxybenzyl)amino)pyridazine-3-carboxylic Acid Na Salt] as the compound, how does the inhibition at 100 µM read?
Answer: The inhibition at 100 µM was 30 to 60%.

Question: For `O=C(O)c1nnccc1NCc1ccc(F)cc1` [Compound 50, sodium salt, 4-((4-Fluorobenzyl)amino)pyridazine-3-carboxylic Acid, sodium Salt], which inhibition at 100 µM is on record?
Answer: The inhibition at 100 µM was < 30%.

Question: Which inhibition at 100 µM does the source give for `Cc1onc(C(=O)O)c1SCc1ccccc1` [Compound 51, 4-(Benzylthio)-5-methylisoxazole-3-carboxylic Acid] here?
Answer: Its inhibition at 100 µM is < 30%.

Question: How did the inhibition at 100 µM turn out when `O=C(O)c1nnsc1Nc1cccc(-c2ccccn2)c1` [Compound 52, 5-((3-(pyridin-2-yl)phenyl)amino)-1,2,3-thiadiazole-4-carboxylic Acid Na Salt] was run?
Answer: The inhibition at 100 µM was > 60%.

Question: Which inhibition at 100 µM does the source give for `Cc1onc(C(=O)O)c1Nc1ccc(Oc2ccc(C#N)cc2)cc1` [Compound 53, 4-((4-(4-cyanophenoxy)phenyl)amino)-5-methylisoxazole-3-carboxylic Acid] here?
Answer: Its inhibition at 100 µM is 30 to 60%.

From patent US20210171503A1, “GLYCOLATE OXIDASE INHIBITORS AND USE THEREOF” (ORFAN BIOTECH INC., priority 2017, published 2021)
